Holding throughout (assay): biochemical
Experiment [1] deals with T1, panel of 374 wild-type kinases (Homo sapiens, UniProt Q04771).
T1 construct: purchased Reaction Biology Corporation
T1 sequence (Q04771 21-509): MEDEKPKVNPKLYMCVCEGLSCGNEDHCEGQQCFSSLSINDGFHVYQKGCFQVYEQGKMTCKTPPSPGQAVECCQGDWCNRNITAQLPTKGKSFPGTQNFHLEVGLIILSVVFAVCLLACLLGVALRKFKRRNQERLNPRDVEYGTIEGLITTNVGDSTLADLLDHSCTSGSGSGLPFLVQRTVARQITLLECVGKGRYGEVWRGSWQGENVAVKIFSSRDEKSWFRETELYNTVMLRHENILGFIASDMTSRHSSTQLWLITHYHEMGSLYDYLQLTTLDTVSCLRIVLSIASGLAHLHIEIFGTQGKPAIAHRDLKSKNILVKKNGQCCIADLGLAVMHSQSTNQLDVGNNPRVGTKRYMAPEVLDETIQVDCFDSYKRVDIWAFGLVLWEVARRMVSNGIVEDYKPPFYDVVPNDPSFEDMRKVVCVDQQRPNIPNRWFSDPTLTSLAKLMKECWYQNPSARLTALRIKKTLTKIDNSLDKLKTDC
As to conditions: read-out: % Enzyme Activity (relative to DMSO controls), ALK2/ACVR1.

In experiment [2] the target is T2, panel of 374 wild-type kinases (Homo sapiens, UniProt Q9UHD2).
T2 construct: purchased Reaction Biology Corporation
T2 sequence (Q9UHD2 1-729): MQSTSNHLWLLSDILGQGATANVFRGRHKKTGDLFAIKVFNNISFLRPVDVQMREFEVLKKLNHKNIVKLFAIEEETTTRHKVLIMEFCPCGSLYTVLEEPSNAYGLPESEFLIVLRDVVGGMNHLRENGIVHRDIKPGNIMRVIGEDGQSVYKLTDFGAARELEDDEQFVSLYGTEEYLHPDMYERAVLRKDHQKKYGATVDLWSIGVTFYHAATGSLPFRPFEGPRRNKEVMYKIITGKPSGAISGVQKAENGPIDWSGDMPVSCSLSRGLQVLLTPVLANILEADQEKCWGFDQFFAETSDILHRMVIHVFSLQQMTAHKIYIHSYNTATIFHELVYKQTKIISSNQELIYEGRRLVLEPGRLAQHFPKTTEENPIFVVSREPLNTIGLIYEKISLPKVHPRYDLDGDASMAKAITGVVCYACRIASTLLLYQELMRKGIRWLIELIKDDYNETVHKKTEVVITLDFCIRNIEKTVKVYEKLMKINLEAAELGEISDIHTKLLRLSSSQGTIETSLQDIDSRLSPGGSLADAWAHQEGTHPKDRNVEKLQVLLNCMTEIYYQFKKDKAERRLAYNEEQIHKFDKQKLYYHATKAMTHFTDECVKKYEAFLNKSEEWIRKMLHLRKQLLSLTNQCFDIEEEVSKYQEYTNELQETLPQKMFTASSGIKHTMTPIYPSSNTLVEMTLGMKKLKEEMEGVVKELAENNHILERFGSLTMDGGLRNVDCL
Particulars: read-out: % Enzyme Activity (relative to DMSO controls), kinase TBK1.

Experiment [3] concerns the target T3, panel of 374 wild-type kinases (Homo sapiens, UniProt O75914).
T3 construct: purchased Reaction Biology Corporation
As to conditions: read-out: % Enzyme Activity (relative to DMSO controls), kinase PAK3.

For experiment [4], the target named is T4, panel of 374 wild-type kinases (Homo sapiens, UniProt O95819).
T4 construct: purchased Reaction Biology Corporation
T4 sequence (O95819 whole entry): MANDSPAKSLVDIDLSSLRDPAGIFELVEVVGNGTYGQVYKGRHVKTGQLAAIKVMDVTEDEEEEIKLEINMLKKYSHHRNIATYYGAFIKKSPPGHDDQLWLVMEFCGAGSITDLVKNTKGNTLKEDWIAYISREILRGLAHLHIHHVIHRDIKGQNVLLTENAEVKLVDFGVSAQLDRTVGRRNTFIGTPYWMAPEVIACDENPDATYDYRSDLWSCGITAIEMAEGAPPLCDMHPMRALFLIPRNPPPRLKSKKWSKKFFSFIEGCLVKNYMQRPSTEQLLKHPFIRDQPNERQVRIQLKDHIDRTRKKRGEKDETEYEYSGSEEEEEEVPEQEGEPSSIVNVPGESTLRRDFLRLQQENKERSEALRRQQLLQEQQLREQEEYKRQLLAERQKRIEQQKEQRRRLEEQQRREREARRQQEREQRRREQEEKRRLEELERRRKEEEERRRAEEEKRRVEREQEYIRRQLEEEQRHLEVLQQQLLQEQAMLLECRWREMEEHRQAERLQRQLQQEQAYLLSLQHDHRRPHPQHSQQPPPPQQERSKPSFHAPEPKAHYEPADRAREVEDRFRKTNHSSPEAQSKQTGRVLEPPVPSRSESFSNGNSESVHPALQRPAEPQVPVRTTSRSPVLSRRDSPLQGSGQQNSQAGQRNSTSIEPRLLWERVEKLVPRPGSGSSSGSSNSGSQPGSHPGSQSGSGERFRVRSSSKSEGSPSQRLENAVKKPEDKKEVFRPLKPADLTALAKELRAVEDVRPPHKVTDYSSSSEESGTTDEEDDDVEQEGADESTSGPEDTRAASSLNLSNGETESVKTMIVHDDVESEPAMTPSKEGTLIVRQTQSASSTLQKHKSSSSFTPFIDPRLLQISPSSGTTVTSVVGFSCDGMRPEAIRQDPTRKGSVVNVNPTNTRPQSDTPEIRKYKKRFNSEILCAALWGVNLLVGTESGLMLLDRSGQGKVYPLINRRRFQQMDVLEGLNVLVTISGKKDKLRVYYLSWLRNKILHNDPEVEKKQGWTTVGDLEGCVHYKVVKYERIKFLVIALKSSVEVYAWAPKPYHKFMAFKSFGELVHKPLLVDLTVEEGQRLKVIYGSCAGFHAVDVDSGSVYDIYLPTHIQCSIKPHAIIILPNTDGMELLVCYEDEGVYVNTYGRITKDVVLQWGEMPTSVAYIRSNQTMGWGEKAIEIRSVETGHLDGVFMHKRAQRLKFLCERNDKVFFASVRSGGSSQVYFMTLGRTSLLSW
Particulars: read-out: % Enzyme Activity (relative to DMSO controls), HGK/MAP4K4.

Experiment [5] concerns the target T5, panel of 374 wild-type kinases (Homo sapiens, UniProt P20794).
T5 construct: purchased Reaction Biology Corporation
T5 sequence (P20794 1-623): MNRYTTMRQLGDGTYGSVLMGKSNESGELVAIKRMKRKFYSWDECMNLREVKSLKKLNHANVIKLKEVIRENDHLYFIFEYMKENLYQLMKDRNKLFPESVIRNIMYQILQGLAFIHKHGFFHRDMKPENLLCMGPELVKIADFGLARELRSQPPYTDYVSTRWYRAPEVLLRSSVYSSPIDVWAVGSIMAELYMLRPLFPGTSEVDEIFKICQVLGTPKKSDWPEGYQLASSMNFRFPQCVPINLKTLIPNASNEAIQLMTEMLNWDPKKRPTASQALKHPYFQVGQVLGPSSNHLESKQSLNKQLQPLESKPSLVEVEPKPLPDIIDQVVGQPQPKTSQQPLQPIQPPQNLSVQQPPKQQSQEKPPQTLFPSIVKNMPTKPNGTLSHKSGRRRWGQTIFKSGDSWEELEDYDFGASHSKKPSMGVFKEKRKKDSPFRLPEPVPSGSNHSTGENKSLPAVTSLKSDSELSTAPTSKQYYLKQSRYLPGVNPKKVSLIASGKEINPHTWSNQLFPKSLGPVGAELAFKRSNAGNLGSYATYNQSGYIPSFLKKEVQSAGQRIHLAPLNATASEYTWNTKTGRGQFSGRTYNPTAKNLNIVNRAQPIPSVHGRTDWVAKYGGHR
As to conditions: read-out: % Enzyme Activity (relative to DMSO controls), MAK.

Experiment [6] addresses T6, panel of 374 wild-type kinases (Homo sapiens, UniProt Q9NR20).
T6 construct: purchased Reaction Biology Corporation
T6 sequence (Q9NR20 1-520): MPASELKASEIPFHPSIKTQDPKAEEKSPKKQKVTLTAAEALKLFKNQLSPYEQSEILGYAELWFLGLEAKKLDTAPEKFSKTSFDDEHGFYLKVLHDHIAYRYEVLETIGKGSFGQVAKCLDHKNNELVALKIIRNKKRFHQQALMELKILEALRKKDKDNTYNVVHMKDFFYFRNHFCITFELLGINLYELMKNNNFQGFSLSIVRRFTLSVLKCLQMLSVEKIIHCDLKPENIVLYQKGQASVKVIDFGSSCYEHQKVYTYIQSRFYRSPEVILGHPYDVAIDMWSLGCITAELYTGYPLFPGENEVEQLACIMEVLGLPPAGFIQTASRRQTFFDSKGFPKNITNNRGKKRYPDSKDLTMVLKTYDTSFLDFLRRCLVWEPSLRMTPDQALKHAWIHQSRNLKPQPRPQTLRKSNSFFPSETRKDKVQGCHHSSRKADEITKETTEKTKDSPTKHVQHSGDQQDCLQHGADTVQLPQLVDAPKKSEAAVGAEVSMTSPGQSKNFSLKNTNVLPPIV
Particulars: read-out: % Enzyme Activity (relative to DMSO controls), DYRK4.

Experiment [7] concerns the target T7, panel of 374 wild-type kinases (Homo sapiens, UniProt P29317).
T7 construct: purchased Reaction Biology Corporation
Particulars: read-out: % Enzyme Activity (relative to DMSO controls), EPHA2.

T3 sequence (O75914 whole entry): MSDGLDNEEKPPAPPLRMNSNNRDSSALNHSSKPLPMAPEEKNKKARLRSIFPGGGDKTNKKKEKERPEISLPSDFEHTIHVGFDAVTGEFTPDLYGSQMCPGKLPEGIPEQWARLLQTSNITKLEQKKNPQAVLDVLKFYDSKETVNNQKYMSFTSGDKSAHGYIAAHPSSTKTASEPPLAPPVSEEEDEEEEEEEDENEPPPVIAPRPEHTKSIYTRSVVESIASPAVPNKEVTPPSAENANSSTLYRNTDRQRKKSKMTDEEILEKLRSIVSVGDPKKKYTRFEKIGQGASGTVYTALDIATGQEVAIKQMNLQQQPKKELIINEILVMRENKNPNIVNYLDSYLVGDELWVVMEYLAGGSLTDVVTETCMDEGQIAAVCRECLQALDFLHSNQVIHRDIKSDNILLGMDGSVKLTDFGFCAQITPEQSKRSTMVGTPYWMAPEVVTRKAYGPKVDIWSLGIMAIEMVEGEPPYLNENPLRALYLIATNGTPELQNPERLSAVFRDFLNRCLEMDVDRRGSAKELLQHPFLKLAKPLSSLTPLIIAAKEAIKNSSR
T7 sequence (P29317 24-976): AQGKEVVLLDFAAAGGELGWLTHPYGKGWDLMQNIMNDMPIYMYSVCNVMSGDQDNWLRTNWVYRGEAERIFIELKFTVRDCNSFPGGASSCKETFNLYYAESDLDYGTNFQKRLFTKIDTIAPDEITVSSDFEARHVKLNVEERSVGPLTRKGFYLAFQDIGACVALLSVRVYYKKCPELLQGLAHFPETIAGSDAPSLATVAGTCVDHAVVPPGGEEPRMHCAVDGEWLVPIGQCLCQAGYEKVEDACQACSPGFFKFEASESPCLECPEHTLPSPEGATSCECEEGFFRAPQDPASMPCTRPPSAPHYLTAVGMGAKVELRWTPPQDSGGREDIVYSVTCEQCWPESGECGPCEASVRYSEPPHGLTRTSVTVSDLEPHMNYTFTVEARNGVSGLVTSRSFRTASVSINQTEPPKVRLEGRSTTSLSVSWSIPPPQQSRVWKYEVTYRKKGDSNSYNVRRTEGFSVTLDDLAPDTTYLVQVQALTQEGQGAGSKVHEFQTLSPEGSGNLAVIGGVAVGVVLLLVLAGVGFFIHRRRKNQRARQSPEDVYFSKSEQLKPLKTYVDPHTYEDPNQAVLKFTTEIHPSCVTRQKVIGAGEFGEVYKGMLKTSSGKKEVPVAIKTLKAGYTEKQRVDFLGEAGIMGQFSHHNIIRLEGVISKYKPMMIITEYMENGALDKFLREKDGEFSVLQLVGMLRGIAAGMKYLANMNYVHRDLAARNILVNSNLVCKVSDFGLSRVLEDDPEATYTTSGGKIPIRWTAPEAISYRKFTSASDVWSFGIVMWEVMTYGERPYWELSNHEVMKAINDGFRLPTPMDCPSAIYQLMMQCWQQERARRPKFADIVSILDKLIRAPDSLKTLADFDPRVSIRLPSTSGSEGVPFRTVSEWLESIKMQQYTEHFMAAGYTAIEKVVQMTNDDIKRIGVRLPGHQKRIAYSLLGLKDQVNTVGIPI

For the molecule `O=C(Nc1cnn(-c2csc(C(=O)NC3COC3)c2)c1)Nc1ccccc1Cl` [Compound 17, 4-(4-(3-(2-chlorophenyl)ureido)-1H-pyrazol-1-yl)-N-(oxetan-3-yl)thiophene-2-carboxamide], the remaining activity at 5 µM came out at 105% in experiment [1]; 102% in experiment [2]; 97.4% in experiment [3]; 81.1% in experiment [4]; 98.8% in experiment [5]; 94.6% in experiment [6]. In addition, the remaining activity at 5 µM in experiment [7] turned out to be 101%.
As to `O=C(Nc1cnn(-c2csc(C(=O)NC3COC3)c2)c1)Nc1c(F)cccc1Cl` [Compound 25, 4-(4-(3-(2-chloro-6-fluorophenyl)ureido)-1H-pyrazol-1-yl)-N-(oxetan-3-yl)thiophene-2-carboxamide], the remaining activity at 5 µM is 95.7% in experiment [1]; 98.8% in experiment [2]; 64.2% in experiment [3]; 90.4% in experiment [4]; 97.6% in experiment [5]; 96.2% in experiment [6]. Further, the remaining activity at 5 µM in experiment [7] turned out to be 97.9%.
`Cc1sc(C(=O)NC2COC2)cc1-n1cc(NC(=O)Nc2c(F)cccc2Cl)cn1` [Compound 27, 4-(4-(3-(2-chloro-6-fluorophenyl)ureido)-1H-pyrazol-1-yl)-5-methyl-N-(oxetan-3-yl)thiophene-2-carboxamide]: the remaining activity at 10 µM is 108% in experiment [1] (10 uM); 97.8% in experiment [2] (10 uM); 114% in experiment [3] (10 uM); 93.4% in experiment [4] (10 uM); 120% in experiment [5] (10 uM); 93.7% in experiment [6] (10 uM). Also, the remaining activity at 10 µM in experiment [7] (10 uM) was 102%.

Source of the values: patent publication US20240246942A1, “KINASE INHIBITORS FOR THE TREATMENT OF NEURODEGENERATIVE DISEASES” (priority 2020, published 2024).
